Source: PubChem BioAssay AID1845205 (Molecular Pharmacology Branch, DTP, NCI, 2023)
pIC50: −log10 of the molar value.

System: MPNST multicellular tumor spheroids, viability % test/control
Experiment: Anticancer human tumor MPNST cell line growth inhibition;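 note: spheroids exposed to agents for seven days after three days of growth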;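 for viability, T/C: luminescence signal used as surrogate for viable cell amount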
Conditions: for pIC50: curve of first compound; for viability, T/C: stronger effect = lower value
Source text: Multicellular complex tumor spheroid response to DNA repair inhibitors in combination with DNA-damaging drugs
This study explores the anticancer activities of DNA-damaging drugs and inhibitors of DNA damage repair, both as single agents and in combinations. Complex tumor spheroids comprised of malignant cells, endothelial cells and mesenchymal stem cells served as an in vitro model for human solid tumors. This model system incorporates physiologically relevant features and patient-derived or established malignant cell lines with clinically relevant genetic alterations from many tumor types. Twenty-six patient-derived or established malignant cell lines were evaluated representing sarcoma, melanoma, small cell lung cancer (SCLC), non-small cell lung cancer (NSCLC), as well as bladder, ovarian and pancreatic cancers. The concentration ranges selected for each drug and investigational agent were based upon clinically achievable concentrations if the clinical Cmax of the agent was known.
Compounds. The drugs and compounds olaparib (NSC753686), talazoparib (NSC767125), berzosertib (NSC777718), elimusertib (NSC800525), nedisertib (NSC802822), VX-984 (NSC792969), AZD-1390 (NSC803789), temozolomide (NSC362856), topotecan (NSC609699), trabectedin (NSC813783), staurosporine (NSC755774), and gemcitabine (NSC613327) were obtained from the National Cancer Institute (NCI) Developmental Therapeutics Program Chemical Repository. The FDA-approved anticancer drug set is available from the Developmental Therapeutics Program at https://dtp.cancer.gov/organization/dscb/obtaining/available_plates.htm. […] The stock solutions were prepared in dimethyl sulfoxide (DMSO, Sigma-Aldrich, St. Louis, MO, cat. D2650) at 400-fold the tested concentration and stored at -70 degrees C. Prior to their use, the stock solutions were diluted in fresh medium and the final DMSO concentration in the assay was 0.25% (v/v). All drugs and investigational agents were tested over a range starting from a high concentration at or near the clinical Cmax and decreasing in half-log increments. If the clinical Cmax for an agent had not been determined, the highest concentration tested was 10 microM.
Cell Lines. The patient-derived cancer cell (PDC) lines: 156681-154-R-J1-PDC, 283228-195-R-J1-PDC, 287954-098-R-J1-PDC, 292921-168-R-J2-PDC, 349418-098-R-PDC, 425362-245-T-J1-PDC, 556581-035-R-J1-PDC, and BL0293-F563-PDC were received from the NCI Patient-Derived Models Repository (PDMR, https://pdmr.cancer.gov). The established cell lines HS-SY-2 (RRID:CVCL_8719), MPNST, and SYO-1 (RRID:CVCL_7146) were obtained from the Sloan Kettering Institute. The alveolar soft parts sarcoma cell line ASPS-1 (RRID:CVCL_S738) was established at the NCI and grown from internal seed stocks. The following established cell lines were purchased from the American Type Culture Collection (ATCC, Manassas, VA): G-401 (ATCC, cat. CRL-1441, RRID:CVCL_0270), SW982 (ATCC, cat. HTB-93, RRID:CVCL_1734), VA-ES-BJ (ATCC, cat. CRL-2138, RRID:CVCL_1785), NCI-H719 (ATCC, cat. CRL-5837, RRID:CVCL_1582), NCI-H196 (ATCC, cat. CRL-5823, RRID:CVCL_1509), NCI-H841 (ATCC, cat. CRL-5845, RRID:CVCL_1595), NCI-H1618 (ATCC, cat. CRL-5879, RRID:CVCL_1480), NCI-H1876 (ATCC, cat. CRL-5902, RRID:CVCL_1503), DMS 114 (ATCC, cat. CRL-2066; RRID:CVCL_1174), NCI-H211 (ATCC, cat. CRL-5824; RRID:CVCL_1529), and SW 1271 (ATCC, cat. CRL-2177, RRID:CVCL_1716). The small cell lung cancer cell line COR-L88 was purchased from Sigma-Aldrich (cat. 92031917-1VL, RRID:CVCL_1141). The non-small cell lung cancer cell lines NCI-H226 (RRID:CVCL_1544) and NCI-H322M (RRID:CVCL_1557) were established at the NCI and grown from internal seed stocks. Pooled donor human umbilical vein endothelial cells (HUVEC, Lonza, cat. CC-2519) and human mesenchymal stem cells (hMSC, Lonza, cat. PT-2501) were purchased from Lonza (Walkersville, MD).
Cell Culture. All cells were maintained in an incubator at 37 degrees C and 5% CO2 with 95% humidity. […]

[1] = second compound 0.003 µM, first compound 0.0316 µM
[2] = second compound 0.003 µM, first compound 0.1 µM
[3] = second compound 0.003 µM, first compound 0.316 µM
[4] = second compound 0.003 µM, first compound 1 µM
[5] = second compound 0.003 µM, first compound 3.16 µM
[6] = second compound 0.003 µM, first compound 10 µM
[7] = second compound 0.00949 µM, first compound 0.0316 µM
[8] = second compound 0.00949 µM, first compound 0.1 µM
[9] = second compound 0.00949 µM, first compound 0.316 µM
[10] = second compound 0.00949 µM, first compound 1 µM
[11] = second compound 0.00949 µM, first compound 3.16 µM
[12] = second compound 0.00949 µM, first compound 10 µM
[13] = second compound 0.03 µM, first compound 0.0316 µM
[14] = second compound 0.03 µM, first compound 0.1 µM
[15] = second compound 0.03 µM, first compound 0.316 µM
[16] = second compound 0.03 µM, first compound 1 µM
[17] = second compound 0.03 µM, first compound 3.16 µM
[18] = second compound 0.03 µM, first compound 10 µM
[19] = second compound 0.0949 µM, first compound 0.0316 µM
[20] = second compound 0.0949 µM, first compound 0.1 µM
[21] = second compound 0.0949 µM, first compound 0.316 µM
[22] = second compound 0.0949 µM, first compound 1 µM
[23] = second compound 0.0949 µM, first compound 3.16 µM
[24] = second compound 0.0949 µM, first compound 10 µM
[25] = second compound 0.3 µM, first compound 0.0316 µM
[26] = second compound 0.3 µM, first compound 0.1 µM
[27] = second compound 0.3 µM, first compound 0.316 µM
[28] = second compound 0.3 µM, first compound 1 µM
[29] = second compound 0.3 µM, first compound 3.16 µM
[30] = second compound 0.3 µM, first compound 10 µM

CC1COCCN1c1cc(-c2ccnn2C)c2ccnc(-c3ccn[nH]3)c2n1 (stereo not given) + CC[C@@]1(O)C(=O)OCc2c1cc1n(c2=O)Cc2cc3c(CN(C)C)c(O)ccc3nc2-1
pIC50 (second compound 0.003 µM): 7.25 | pIC50 (second compound 0.00949 µM): 7.50 | pIC50 (second compound 0.03 µM): > 7.50 | pIC50 (second compound 0.0949 µM): > 7.50 | pIC50 (second compound 0.3 µM): > 7.50 | viability, T/C [1]: 51% | viability, T/C [2]: 49.7% | viability, T/C [3]: 39.3% | viability, T/C [4]: 34.1% | viability, T/C [5]: 25.9% | viability, T/C [6]: 26.9% | viability, T/C [7]: 50.3% | viability, T/C [8]: 44% | viability, T/C [9]: 42.2% | viability, T/C [10]: 34.6% | viability, T/C [11]: 26.5% | viability, T/C [12]: 23.8% | viability, T/C [13]: 48.7% | viability, T/C [14]: 44.5% | viability, T/C [15]: 48.4% | viability, T/C [16]: 34.6% | viability, T/C [17]: 26.1% | viability, T/C [18]: 23.5% | viability, T/C [19]: 45.8% | viability, T/C [20]: 43.8% | viability, T/C [21]: 41% | viability, T/C [22]: 28.3% | viability, T/C [23]: 26.9% | viability, T/C [24]: 21.8% | viability, T/C [25]: 41.1% | viability, T/C [26]: 39.9% | viability, T/C [27]: 34% | viability, T/C [28]: 28.1% | viability, T/C [29]: 21.2% | viability, T/C [30]: 17.5%

COc1cc(C)[nH]c(=O)c1CN1CCc2c(Cl)cc(C(OC)C3COC3)c(Cl)c2C1=O (stereo not given) + CC[C@@]1(O)C(=O)OCc2c1cc1n(c2=O)Cc2cc3c(CN(C)C)c(O)ccc3nc2-1
pIC50 (second compound 0.003 µM): < 5.00 | pIC50 (second compound 0.00949 µM): < 5.00 | pIC50 (second compound 0.03 µM): > 7.50 | pIC50 (second compound 0.0949 µM): > 7.50 | pIC50 (second compound 0.3 µM): > 7.50 | viability, T/C [1]: 92.6% | viability, T/C [2]: 95.7% | viability, T/C [3]: 91.3% | viability, T/C [4]: 103% | viability, T/C [5]: 93.6% | viability, T/C [6]: 95.5% | viability, T/C [7]: 96.6% | viability, T/C [8]: 88.5% | viability, T/C [9]: 96.4% | viability, T/C [10]: 78% | viability, T/C [11]: 77.9% | viability, T/C [12]: 86.3% | viability, T/C [13]: 46.4% | viability, T/C [14]: 49.5% | viability, T/C [15]: 51.5% | viability, T/C [16]: 49.2% | viability, T/C [17]: 54.2% | viability, T/C [18]: 51.6% | viability, T/C [19]: 48.5% | viability, T/C [20]: 41.7% | viability, T/C [21]: 43.7% | viability, T/C [22]: 47.7% | viability, T/C [23]: 45.7% | viability, T/C [24]: 46.7% | viability, T/C [25]: 37% | viability, T/C [26]: 39.2% | viability, T/C [27]: 39.2% | viability, T/C [28]: 37.3% | viability, T/C [29]: 37.7% | viability, T/C [30]: 39.5%

Cc1cc(C)c(CNC(=O)c2cc(-c3ccc(CN4CCOCC4)cc3)cc3c2cnn3C2CCCC2)c(=O)[nH]1 + CC[C@@]1(O)C(=O)OCc2c1cc1n(c2=O)Cc2cc3c(CN(C)C)c(O)ccc3nc2-1
pIC50 (second compound 0.003 µM): < 5.00 | pIC50 (second compound 0.00949 µM): < 5.00 | pIC50 (second compound 0.03 µM): < 5.00 | pIC50 (second compound 0.0949 µM): < 5.00 | pIC50 (second compound 0.3 µM): > 7.50 | viability, T/C [1]: 86% | viability, T/C [2]: 79.4% | viability, T/C [3]: 88.8% | viability, T/C [4]: 83.2% | viability, T/C [5]: 93.3% | viability, T/C [6]: 87.5% | viability, T/C [7]: 80.3% | viability, T/C [8]: 70% | viability, T/C [9]: 91% | viability, T/C [10]: 71.4% | viability, T/C [11]: 76.1% | viability, T/C [12]: 78.9% | viability, T/C [13]: 55.4% | viability, T/C [14]: 54.6% | viability, T/C [15]: 50% | viability, T/C [16]: 53% | viability, T/C [17]: 58.2% | viability, T/C [18]: 68.2% | viability, T/C [19]: 51.8% | viability, T/C [20]: 52.1% | viability, T/C [21]: 51.1% | viability, T/C [22]: 52.4% | viability, T/C [23]: 50.3% | viability, T/C [24]: 58.3% | viability, T/C [25]: 41.7% | viability, T/C [26]: 41% | viability, T/C [27]: 43.2% | viability, T/C [28]: 37.8% | viability, T/C [29]: 42.6% | viability, T/C [30]: 45.4%

[2H]c1nc(C)nc([2H])c1-c1cc(NC[C@@H](C)c2cccc3c(C(=O)NC)ccnc23)ncn1 + CC[C@@]1(O)C(=O)OCc2c1cc1n(c2=O)Cc2cc3c(CN(C)C)c(O)ccc3nc2-1
pIC50 (second compound 0.003 µM): < 5.00 | pIC50 (second compound 0.00949 µM): < 5.00 | pIC50 (second compound 0.03 µM): > 7.50 | pIC50 (second compound 0.0949 µM): > 7.50 | pIC50 (second compound 0.3 µM): > 7.50 | viability, T/C [1]: 96.5% | viability, T/C [2]: 107% | viability, T/C [3]: 93.5% | viability, T/C [4]: 99.7% | viability, T/C [5]: 92.4% | viability, T/C [6]: 67.8% | viability, T/C [7]: 74.5% | viability, T/C [8]: 58.1% | viability, T/C [9]: 77.8% | viability, T/C [10]: 74.2% | viability, T/C [11]: 49.4% | viability, T/C [12]: 59.9% | viability, T/C [13]: 39.3% | viability, T/C [14]: 39.7% | viability, T/C [15]: 37.6% | viability, T/C [16]: 36.4% | viability, T/C [17]: 37.8% | viability, T/C [18]: 36.2% | viability, T/C [19]: 38.5% | viability, T/C [20]: 37.5% | viability, T/C [21]: 39.4% | viability, T/C [22]: 35.4% | viability, T/C [23]: 34% | viability, T/C [24]: 35.1% | viability, T/C [25]: 33.1% | viability, T/C [26]: 31% | viability, T/C [27]: 29.9% | viability, T/C [28]: 30.8% | viability, T/C [29]: 28.1% | viability, T/C [30]: 25.9%
